This passage reports remaining binding results from paper PMC10004634 (PLOS ONE, 2023).

Read-outs that look alike come from different tables or passages of the source.

Test in all cases: biochemical
What all share (design): KINOMEscan scanMAX competition binding, DNA-tagged kinases, qPCR read-out, percent control at 300 nM
A general note: Quantitative PCR measures a nucleic acid by following its amplification.

Assay [1] deals with MYLK (Homo sapiens, UniProt Q15746).
The target of assay [2] is T1, RSK3(Kin.Dom.1-N-terminal) (Homo sapiens, UniProt Q15349).
T1 construct: gene RPS6KA2; Kin.Dom.1-N-terminal

For assay [3], the target named is WEE2 (Homo sapiens, UniProt P0C1S8).
For assay [4], the target named is T2, ABL1(Y253F)-phosphorylated (Homo sapiens, UniProt P00519, Y253F).
T2 construct: phosphorylated

For assay [5], the target named is CAMKK2 (Homo sapiens, UniProt Q96RR4).
The target in assay [6] is PIM1 (Homo sapiens, UniProt P11309).
In assay [7] the target is EPHB3 (Homo sapiens, UniProt P54753).
Assay [8] addresses TESK1 (Homo sapiens, UniProt Q15569).
Assay [9] concerns the target T3, PIP5K2B (Homo sapiens, UniProt P78356).
T3 construct: gene PIP4K2B

The target of assay [10] is PRKCE (Homo sapiens, UniProt Q02156).
Assay [11] addresses INSRR (Homo sapiens, UniProt P14616).
In assay [12] the target is T4, JNK2 (Homo sapiens, UniProt P45984).
T4 construct: gene MAPK9

Assay [13] addresses EGFR(E746-A750del) (Homo sapiens, UniProt P00533, DEL746-750).
For assay [14], the target named is T5, ERK5 (Homo sapiens, UniProt Q13164).
T5 construct: gene MAPK7

Assay [15] has as its target T6, YANK1 (Homo sapiens, UniProt Q8WU08).
T6 construct: gene STK32A

Assay [16] deals with T7, FAK (Homo sapiens, UniProt Q05397).
T7 construct: gene PTK2

In assay [17] the target is T8, DCAMKL2 (Homo sapiens, UniProt Q8N568).
T8 construct: gene DCLK2

Assay [18] concerns the target MAP3K2 (Homo sapiens, UniProt Q9Y2U5).
The target in assay [19] is T9, PCTK2 (Homo sapiens, UniProt Q00537).
T9 construct: gene CDK17

In assay [20] the target is EPHA8 (Homo sapiens, UniProt P29322).
For assay [21], the target named is T10, MLK2 (Homo sapiens, UniProt Q02779).
T10 construct: gene MAP3K10

Assay [22] concerns the target MAP3K15 (Homo sapiens, UniProt Q6ZN16).
Assay [23] addresses PLK4 (Homo sapiens, UniProt O00444).
[24] abbreviates: read-out: Percent control / Acalabrutinib.
Where [25] appears, read: read-out: Percent control / Ibrutinib.
Setting [26] is: read-out: Percent control / Tirabrutinib.
Where [27] appears, read: read-out: Percent control / Zanubrutinib.

Chain of EPHB3 (P54753 whole entry): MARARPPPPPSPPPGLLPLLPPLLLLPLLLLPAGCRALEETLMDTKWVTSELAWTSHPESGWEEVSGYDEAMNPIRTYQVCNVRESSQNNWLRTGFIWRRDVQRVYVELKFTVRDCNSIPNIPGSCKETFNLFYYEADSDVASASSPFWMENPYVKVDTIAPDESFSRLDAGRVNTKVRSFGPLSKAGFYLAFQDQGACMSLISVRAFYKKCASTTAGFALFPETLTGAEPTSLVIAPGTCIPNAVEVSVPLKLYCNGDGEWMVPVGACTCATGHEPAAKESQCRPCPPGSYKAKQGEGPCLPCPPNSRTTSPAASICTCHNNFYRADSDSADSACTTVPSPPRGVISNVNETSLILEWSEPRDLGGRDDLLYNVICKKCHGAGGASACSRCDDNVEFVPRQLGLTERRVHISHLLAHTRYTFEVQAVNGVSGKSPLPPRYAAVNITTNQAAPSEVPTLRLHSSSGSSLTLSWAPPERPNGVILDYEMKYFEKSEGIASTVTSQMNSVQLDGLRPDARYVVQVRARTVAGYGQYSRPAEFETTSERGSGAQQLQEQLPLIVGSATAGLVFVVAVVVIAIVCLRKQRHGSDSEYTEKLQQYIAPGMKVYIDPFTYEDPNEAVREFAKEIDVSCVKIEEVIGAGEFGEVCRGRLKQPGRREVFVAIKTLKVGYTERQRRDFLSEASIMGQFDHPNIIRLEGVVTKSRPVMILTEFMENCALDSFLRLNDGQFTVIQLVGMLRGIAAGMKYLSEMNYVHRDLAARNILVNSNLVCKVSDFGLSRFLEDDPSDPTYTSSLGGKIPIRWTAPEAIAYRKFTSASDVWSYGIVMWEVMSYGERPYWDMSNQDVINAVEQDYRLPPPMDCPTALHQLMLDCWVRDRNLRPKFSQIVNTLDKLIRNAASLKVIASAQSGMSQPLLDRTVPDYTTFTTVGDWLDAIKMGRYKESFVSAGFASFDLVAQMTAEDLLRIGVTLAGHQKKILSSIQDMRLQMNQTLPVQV
Chain of TESK1 (Q15569 whole entry): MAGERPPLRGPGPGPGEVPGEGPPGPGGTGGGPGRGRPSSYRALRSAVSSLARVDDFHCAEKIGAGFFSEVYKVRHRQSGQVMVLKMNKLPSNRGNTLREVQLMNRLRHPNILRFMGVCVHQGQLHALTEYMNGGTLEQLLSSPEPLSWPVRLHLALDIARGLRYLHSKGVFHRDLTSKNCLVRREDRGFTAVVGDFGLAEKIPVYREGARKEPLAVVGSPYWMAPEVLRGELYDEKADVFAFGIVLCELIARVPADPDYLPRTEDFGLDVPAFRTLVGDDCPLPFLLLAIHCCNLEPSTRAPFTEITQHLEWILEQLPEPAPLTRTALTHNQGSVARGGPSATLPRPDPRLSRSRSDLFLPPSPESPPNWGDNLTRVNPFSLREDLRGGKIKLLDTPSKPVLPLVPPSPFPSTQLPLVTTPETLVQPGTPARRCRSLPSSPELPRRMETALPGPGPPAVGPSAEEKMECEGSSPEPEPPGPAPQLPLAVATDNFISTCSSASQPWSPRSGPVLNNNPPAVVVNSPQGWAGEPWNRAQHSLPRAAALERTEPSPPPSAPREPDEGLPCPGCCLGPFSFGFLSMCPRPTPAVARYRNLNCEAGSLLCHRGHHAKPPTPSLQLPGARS
Chain of MAP3K2 (Q9Y2U5 whole entry): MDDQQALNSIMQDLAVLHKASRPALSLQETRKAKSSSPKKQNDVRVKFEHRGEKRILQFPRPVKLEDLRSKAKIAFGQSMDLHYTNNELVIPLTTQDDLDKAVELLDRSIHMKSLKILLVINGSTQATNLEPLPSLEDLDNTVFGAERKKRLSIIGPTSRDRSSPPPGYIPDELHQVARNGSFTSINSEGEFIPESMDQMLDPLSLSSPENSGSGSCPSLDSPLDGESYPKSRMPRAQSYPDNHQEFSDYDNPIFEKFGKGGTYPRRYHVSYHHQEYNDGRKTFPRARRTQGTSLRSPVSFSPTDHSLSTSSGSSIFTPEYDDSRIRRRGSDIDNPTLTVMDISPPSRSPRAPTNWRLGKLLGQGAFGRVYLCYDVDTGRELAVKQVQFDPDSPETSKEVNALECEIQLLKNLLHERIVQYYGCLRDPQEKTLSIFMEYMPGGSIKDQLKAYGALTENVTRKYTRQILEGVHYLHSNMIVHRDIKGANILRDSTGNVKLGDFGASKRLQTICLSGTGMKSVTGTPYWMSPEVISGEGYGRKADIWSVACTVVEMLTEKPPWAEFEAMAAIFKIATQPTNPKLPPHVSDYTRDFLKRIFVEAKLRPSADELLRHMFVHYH
Chain of WEE2 (P0C1S8 whole entry): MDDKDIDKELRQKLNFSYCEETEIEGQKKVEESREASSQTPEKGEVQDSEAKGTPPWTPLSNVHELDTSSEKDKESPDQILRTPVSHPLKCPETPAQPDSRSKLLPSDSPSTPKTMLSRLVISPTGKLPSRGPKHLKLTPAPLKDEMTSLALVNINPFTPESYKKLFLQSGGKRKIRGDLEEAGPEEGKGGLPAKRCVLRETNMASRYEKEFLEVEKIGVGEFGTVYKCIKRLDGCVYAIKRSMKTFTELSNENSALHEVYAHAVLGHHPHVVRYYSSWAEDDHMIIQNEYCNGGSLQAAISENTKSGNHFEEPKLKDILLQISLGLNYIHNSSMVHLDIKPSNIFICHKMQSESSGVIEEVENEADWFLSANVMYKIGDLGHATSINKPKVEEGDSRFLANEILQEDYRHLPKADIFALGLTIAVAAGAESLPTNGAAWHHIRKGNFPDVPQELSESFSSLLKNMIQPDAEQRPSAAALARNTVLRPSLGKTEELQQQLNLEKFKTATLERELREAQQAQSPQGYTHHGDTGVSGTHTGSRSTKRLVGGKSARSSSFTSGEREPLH
Chain of INSRR (P14616 whole entry): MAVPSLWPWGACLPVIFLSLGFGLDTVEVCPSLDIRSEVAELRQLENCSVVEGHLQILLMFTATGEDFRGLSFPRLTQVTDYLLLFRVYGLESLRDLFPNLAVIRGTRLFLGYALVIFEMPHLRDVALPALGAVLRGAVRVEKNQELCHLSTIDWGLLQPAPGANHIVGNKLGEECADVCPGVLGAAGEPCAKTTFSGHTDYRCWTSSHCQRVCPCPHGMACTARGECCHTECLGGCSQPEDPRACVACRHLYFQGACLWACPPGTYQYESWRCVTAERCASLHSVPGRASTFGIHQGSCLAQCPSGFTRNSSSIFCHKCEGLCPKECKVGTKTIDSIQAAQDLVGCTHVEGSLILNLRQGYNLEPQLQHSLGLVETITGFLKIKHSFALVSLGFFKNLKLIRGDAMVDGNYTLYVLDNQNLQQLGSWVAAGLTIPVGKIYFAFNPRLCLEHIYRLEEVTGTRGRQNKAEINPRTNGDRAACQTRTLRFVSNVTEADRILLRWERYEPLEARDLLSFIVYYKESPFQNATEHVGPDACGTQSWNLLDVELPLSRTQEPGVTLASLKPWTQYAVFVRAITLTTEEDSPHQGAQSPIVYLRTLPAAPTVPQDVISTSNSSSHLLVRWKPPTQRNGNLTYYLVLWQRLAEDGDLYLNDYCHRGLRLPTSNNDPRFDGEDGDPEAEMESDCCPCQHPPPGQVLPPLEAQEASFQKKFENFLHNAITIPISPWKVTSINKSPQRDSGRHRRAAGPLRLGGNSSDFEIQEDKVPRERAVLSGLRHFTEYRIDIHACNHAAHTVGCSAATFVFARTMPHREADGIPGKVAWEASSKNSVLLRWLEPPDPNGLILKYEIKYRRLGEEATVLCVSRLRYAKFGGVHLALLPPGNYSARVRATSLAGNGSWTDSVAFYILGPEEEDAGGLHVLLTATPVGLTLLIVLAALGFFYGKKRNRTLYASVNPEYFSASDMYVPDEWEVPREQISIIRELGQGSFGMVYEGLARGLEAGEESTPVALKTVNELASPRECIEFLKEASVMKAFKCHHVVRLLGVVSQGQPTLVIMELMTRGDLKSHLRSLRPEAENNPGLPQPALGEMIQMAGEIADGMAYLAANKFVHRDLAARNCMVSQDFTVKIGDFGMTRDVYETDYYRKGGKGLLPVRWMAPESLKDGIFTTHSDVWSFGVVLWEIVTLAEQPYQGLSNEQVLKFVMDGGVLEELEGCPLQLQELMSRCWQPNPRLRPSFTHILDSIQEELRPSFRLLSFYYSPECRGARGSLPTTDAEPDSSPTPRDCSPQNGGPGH
T3 sequence (P78356 whole entry): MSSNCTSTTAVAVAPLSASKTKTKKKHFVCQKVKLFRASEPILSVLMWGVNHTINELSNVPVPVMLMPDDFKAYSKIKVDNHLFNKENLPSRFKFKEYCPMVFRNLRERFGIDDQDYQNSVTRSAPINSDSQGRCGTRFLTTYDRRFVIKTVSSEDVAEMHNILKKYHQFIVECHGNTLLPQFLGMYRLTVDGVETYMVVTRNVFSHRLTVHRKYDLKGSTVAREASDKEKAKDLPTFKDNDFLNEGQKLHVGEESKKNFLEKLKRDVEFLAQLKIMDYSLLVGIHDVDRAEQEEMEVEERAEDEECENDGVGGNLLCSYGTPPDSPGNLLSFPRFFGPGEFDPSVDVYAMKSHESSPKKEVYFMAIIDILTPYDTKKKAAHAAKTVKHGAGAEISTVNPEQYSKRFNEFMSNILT
T6 sequence (Q8WU08 whole entry): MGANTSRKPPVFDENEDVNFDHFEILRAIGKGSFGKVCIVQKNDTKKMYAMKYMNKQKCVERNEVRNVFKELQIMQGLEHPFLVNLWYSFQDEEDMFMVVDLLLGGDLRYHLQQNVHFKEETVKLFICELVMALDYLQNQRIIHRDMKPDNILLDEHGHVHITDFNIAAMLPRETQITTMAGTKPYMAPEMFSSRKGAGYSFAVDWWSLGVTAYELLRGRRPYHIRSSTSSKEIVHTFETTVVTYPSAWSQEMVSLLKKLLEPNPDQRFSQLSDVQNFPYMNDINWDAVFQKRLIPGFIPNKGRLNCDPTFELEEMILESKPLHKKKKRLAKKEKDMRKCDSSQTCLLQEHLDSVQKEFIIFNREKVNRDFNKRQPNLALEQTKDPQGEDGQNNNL

Regarding `CC#CC(=O)N1CCC[C@H]1c1nc(-c2ccc(C(=O)Nc3ccccn3)cc2)c2c(N)nccn12` [Acalabrutinib], the remaining binding at 0.3 µM in assay [1] (setting [24]) worked out at 82%; in assay [2] (setting [24]) it was 85%; in [3] (setting [24]), 89%; in assay [4] (setting [24]), 90%; in assay [5] (setting [24]), 97%; in [6] (setting [24]), 94%. Further, the remaining binding at 0.3 µM in assay [7] (setting [24]) came to 91%; in assay [8] (setting [24]), 79%; in assay [9] (setting [24]), 93%; in [10] (setting [24]), 96%; in [11] (setting [24]), 91%; in assay [12] (setting [24]) it was 95%. For the same compound, the remaining binding at 0.3 µM in [13] (setting [24]) was determined as 96%; in assay [14] (setting [24]), 97%; in [15] (setting [24]), 97%; in assay [16] (setting [24]), 79%; in assay [17] (setting [24]), 90%; in assay [18] (setting [24]), 97%. The remaining binding at 0.3 µM in assay [19] (setting [24]) was 97%; in [20] (setting [24]) it was 96%.

For `C=CC(=O)N1CCC[C@@H](n2nc(-c3ccc(Oc4ccccc4)cc3)c3c(N)ncnc32)C1` [Ibrutinib], the remaining binding at 0.3 µM in assay [3] (setting [25]) was 93%; in assay [21] (setting [25]), 90%; in [22] (setting [25]), 96%; in assay [23] (setting [25]), 86%.

`CC#CC(=O)N1CC[C@@H](n2c(=O)n(-c3ccc(Oc4ccccc4)cc3)c3c(N)ncnc32)C1` [Tirabrutinib]: the remaining binding at 0.3 µM in assay [21] (setting [26]) turned out to be 77%; in [13] (setting [26]) it was 100%.

`C=CC(=O)N1CCC([C@@H]2CCNc3c(C(N)=O)c(-c4ccc(Oc5ccccc5)cc4)nn32)CC1` [Zanubrutinib]: the remaining binding at 0.3 µM in assay [1] (setting [27]) was 82%; in [2] (setting [27]) it was 100%; in assay [4] (setting [27]) it was 85%; in assay [5] (setting [27]), 87%; in assay [22] (setting [27]) it was 54%; in [6] (setting [27]), 73%. Besides, the remaining binding at 0.3 µM in assay [7] (setting [27]) worked out at 96%; in [8] (setting [27]), 83%; in assay [9] (setting [27]), 88%; in assay [10] (setting [27]), 100%; in [11] (setting [27]), 96%; in assay [12] (setting [27]), 100%. Moreover, the remaining binding at 0.3 µM came to 84% in [23] (setting [27]); 84% in assay [14] (setting [27]); 75% in assay [15] (setting [27]); 100% in assay [16] (setting [27]); 91% in [17] (setting [27]); 85% in assay [18] (setting [27]). In addition, the remaining binding at 0.3 µM in [19] (setting [27]) stood at 82%; in assay [20] (setting [27]), 90%.
